Where a name gives a salt, the structure may show the parent alone.
Assay: RP, Waters ACQUITY Premier BEH C18, 100 × 2.1 mm, 1.7 µm, 40 °C, 0.3 to 0.4 mL/min, estimated dead time 0.73 min; A: water + 0.1% formic acid; B: acetonitrile + 0.1% formic acid; gradient (min/%B) 0/0.5 0.1/0.5 10/80 10.1/99.5 12/0.5 12.1/0.5 14.5/0.5
Conditions: stereoisomer not certain

For `COc1cc(CC(COC2OC(CO)C(O)C(O)C2O)C(COC2OC(CO)C(O)C(O)C2O)Cc2ccc(O)c(OC)c2)ccc1O` (centres undefined) [SECOISOLARICIRESINOL DIGLUCOSIDE], which LC retention time is on record?
Its LC retention time is 4.58 min.

Which LC retention time does the source give for `O=CC(O)C(O)C(O)C(O)CO` (stereo not drawn) [ISTD_ D(+)-GLUCOSE-13C6] here?
The LC retention time was 0.888 min.

Which LC retention time does the source give for `C[C@H](O)[C@@H](O)[C@H](O)[C@H](O)CO` [1-DEOXY-D-GLUCITOL] here?
The LC retention time was 0.959 min.

For `CCCCCCCCC=CCCCCCCCC(=O)O` [ELAIDATE], which LC retention time is on record?
The LC retention time was 10 min.

For `CCCCCCCCCCCCCCCC(O)C(N)CO` (centres undefined) [SPHINGANINE], which LC retention time is on record?
The LC retention time was 7.51 min.

With `CC(=O)C1CCC2C3CC=C4CC(OS(=O)(=O)O)CCC4(C)C3CCC12C` (centres undefined) [PREGNENOLONE SULFATE] as the compound, how does the LC retention time read?
The LC retention time was 7.26 min.

Which LC retention time does the source give for `O=C(O)/C=C/c1ccccc1` [TRANS-CINNAMATE] here?
Its LC retention time is 6.45 min.

Which LC retention time does the source give for `Nc1nc2nccnc2c(=O)[nH]1` [PTERIN] here?
Its LC retention time is 2.44 min.

Which LC retention time does the source give for `Cn1cnc2[nH]c(=O)[nH]c(=O)c21` [7-METHYLXANTHINE] here?
Its LC retention time is 1.2 min.

With `COc1ccc2[nH]cc(CCNC(C)=O)c2c1` [MELATONIN] as the compound, how does the LC retention time read?
The LC retention time was 5.57 min.

Which LC retention time does the source give for `O=C(O)c1cc(O)c(O)c(O)c1` [GALLIC ACID] here?
Its LC retention time is 1.34 min.

With `O=CNC(Cc1ccccc1)C(=O)O` (centres undefined) [N-FORMYLPHENYLALANINE] as the compound, how does the LC retention time read?
Its LC retention time is 4.77 min.

Which LC retention time does the source give for `CC(O)CCCCCC(=O)O` (centres undefined) [7-HYDROXYOCTANOIC ACID] here?
The LC retention time was 4.96 min.

Which LC retention time does the source give for `CC(CCC(=O)O)C1CCC2C3C(O)CC4CC(O)CCC4(C)C3CC(O)C12C` (centres undefined) [CHOLATE] here?
The LC retention time was 7.13 min.

With `O=C(O)CNC(=O)CCc1ccccc1` [PHENYLPROPIONYLGLYCINE] as the compound, how does the LC retention time read?
The LC retention time was 4.84 min.

For `NC(=O)NCCC(=O)O` [UREIDOPROPIONATE], which LC retention time is on record?
The LC retention time was 1.27 min.

For `CC1C(=O)Nc2ccccc21` (centres undefined) [3-METHYL-2-OXINDOLE], which LC retention time is on record?
Its LC retention time is 5.75 min.

For `O=S(=O)(O)Oc1c[nH]c2ccccc12` [INDOXYL SULFATE], which LC retention time is on record?
Its LC retention time is 4.58 min.

With `O=C(O)c1ccc(CO)o1` [SUMIKI'S ACID] as the compound, how does the LC retention time read?
The LC retention time was 3.65 min.

With `O=C1c2c(O)cc(O)cc2OCC1c1ccc(O)cc1` (centres undefined) [DIHYDROGENISTEIN] as the compound, how does the LC retention time read?
Its LC retention time is 5.97 min.

Which LC retention time does the source give for `O=C(OC1Cc2c(O)cc(O)cc2OC1c1ccc(O)c(O)c1)c1cc(O)c(O)c(O)c1` (centres undefined) [(?)-EPICATECHIN GALLATE] here?
Its LC retention time is 4.47 min.

For `CCCCCCCCCCCC=CCCCCC(=O)O` [PETROSELINATE], which LC retention time is on record?
The LC retention time was 10 min.

Which LC retention time does the source give for `NC(=O)c1ncn(C2OC(CO)C(O)C2O)c1N` (centres undefined) [AICA-RIBOSIDE] here?
The LC retention time was 0.945 min.

For `Nc1ccccc1C(=O)CC(N)C(=O)O` (centres undefined) [KYNURENINE], which LC retention time is on record?
Its LC retention time is 3.62 min.

Which LC retention time does the source give for `O=C(O)CNC(=O)c1ccccc1` [HIPPURATE] here?
The LC retention time was 4.57 min.

With `Cn1cnc2c(ncn2C2OC(CO)C(O)C2O)c1=N` (centres undefined) [1-METHYLADENOSINE] as the compound, how does the LC retention time read?
The LC retention time was 2.05 min.

With `CCCCC(=O)C(=O)O` [2-KETOHEXANOIC ACID] as the compound, how does the LC retention time read?
The LC retention time was 4.8 min.

With `CC(=O)NC(CC(=O)O)C(=O)O` (centres undefined) [N-ACETYLASPARTATE] as the compound, how does the LC retention time read?
The LC retention time was 1.41 min.

Which LC retention time does the source give for `O=c1cc(-c2ccc(O)cc2)oc2cc(OC3OC(CO)C(O)C(O)C3O)cc(O)c12` (centres undefined) [COSMOSIIN] here?
Its LC retention time is 4.75 min.

Which LC retention time does the source give for `O=C(O)CNC(=O)Cc1ccccc1` [PHENYLACETYLGLYCINE] here?
The LC retention time was 4.21 min.

Which LC retention time does the source give for `O=c1[nH]c(=O)c2ncn(C3OC(COP(=O)(O)O)C(O)C3O)c2[nH]1` (centres undefined) [XANTHOSINE-MONOPHOSPHATE] here?
The LC retention time was 1.87 min.

Which LC retention time does the source give for `O=c1ccn(C2CC(O)C(COP(=O)(O)O)O2)c(=O)[nH]1` (centres undefined) [DEOXYURIDINE-MONOPHOSPHATE] here?
Its LC retention time is 1.7 min.

Which LC retention time does the source give for `CC1C(=O)OC2C(O)C34C5CC(C(C)(C)C)C36C(OC(=O)C6O)OC4(C(=O)O5)C12O` (centres undefined) [GINKGOLIDE B] here?
The LC retention time was 5.64 min.

With `CS(=O)CCCCN=C=S` (centres undefined) [SULFORAPHANE] as the compound, how does the LC retention time read?
Its LC retention time is 4.72 min.

For `O=C(O)CCCCCCCO` [8-HYDROXYOCTANOATE], which LC retention time is on record?
Its LC retention time is 5.04 min.

For `CC(O)(CCO)CC(=O)O` (centres undefined) [MEVALONATE], which LC retention time is on record?
Its LC retention time is 2.75 min.

With `O=C(O)C1CCC(O)CC1` (centres undefined) [4-HYDROXYCYCLOHEXYLCARBOXYLIC ACID] as the compound, how does the LC retention time read?
Its LC retention time is 4.05 min.

For `O=c1cc[nH]c(=O)[nH]1` [URACIL], which LC retention time is on record?
Its LC retention time is 1.39 min.

With `NCCc1ccc(O)c(O)c1` [DOPAMINE] as the compound, how does the LC retention time read?
The LC retention time was 1.74 min.

Which LC retention time does the source give for `CC1C(=O)OC2CC34C5CC(C(C)(C)C)C36C(OC(=O)C6O)OC4(C(=O)O5)C21O` (centres undefined) [GINKGOLIDE A] here?
The LC retention time was 5.66 min.

For `O=C(O)C1CCCCC1` [CYCLOHEXANECARBOXYLIC ACID], which LC retention time is on record?
The LC retention time was 5.27 min.

With `NCCc1cc(O)c(O)cc1O` [6-HYDROXYDOPAMINE] as the compound, how does the LC retention time read?
Its LC retention time is 1.31 min.

With `O=C(O)Cc1ccccc1O` [ORTHO-HYDROXYPHENYLACETIC ACID] as the compound, how does the LC retention time read?
Its LC retention time is 4.97 min.

Which LC retention time does the source give for `COc1ccc2c3c([nH]c2c1)C(C)=NCC3` [HARMALINE] here?
Its LC retention time is 4.51 min.

From the RepoRT retention time repository
